In patent US20040072907A1, “Antipicornaviral compounds, compositions containing them, and methods for their use” (priority 1997, published 2004):
Where two headings read alike, the source gives them in different places.

Legend:
[1] = test system: HI-HeLa cells; assay: Cytotoxicity in mock-infected HI-HeLa cells (XTT, antirhinoviral assay); type: cell-based; settings: mock-infected HI-HeLa cells, read-out: CC50
Procedure: (§1) In the Cell Protection Assay, the ability of compounds to protect cells against HRV infection was measured by the XTT dye reduction method. This method is described in Weislow, O. S., Kiser, R., Fine, D. L., Bader, J., Shoemaker, R. H., Boyd, M. R., J. Natl. Cancer Inst. 1989, 81, 577-586, the disclosure of which is incorporated herein by reference.
(§2) Infected or mock-infected cells were resuspended at 8×10^5 cells per mL and incubated with appropriate concentrations of compounds of formula I. Two days later, XTT/PMS was added to test plates, and the amount of formazan produced was quantified spectrophotometrically at 450/650 nm. […] The therapeutic index (TI) was calculated by dividing the CC50 by the EC50.
HRV stocks were propagated, and viral assays were performed in HI-HeLa cells (ATCC). Cells were grown in Minimal Essential Medium, available from Life Technologies, with 10% fetal bovine serum.

[2] = target: Recombinant Rhinovirus 3C protease serotype 16 (Human rhinovirus 16, UniProt Q82122); type: biochemical
Chain of Recombinant Rhinovirus 3C protease serotype 16 (Q82122 1511-1693): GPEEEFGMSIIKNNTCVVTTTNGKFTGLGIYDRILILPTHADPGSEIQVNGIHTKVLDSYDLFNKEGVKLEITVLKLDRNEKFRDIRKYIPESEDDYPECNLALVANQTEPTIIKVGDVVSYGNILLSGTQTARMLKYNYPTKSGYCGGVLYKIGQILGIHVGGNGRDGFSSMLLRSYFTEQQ
Procedure: Stock solutions (50 mM, in DMSO) of various compounds were prepared; dilutions were in the same solvent. […] Assays contained 2% DMSO, 50 mM tris pH 7.6, 1 mM EDTA, a compound at the indicated concentrations, approximately 1 μM substrate, and 50-100 nM protease. […] The kobs/I values were obtained from reactions initiated by addition of enzyme rather than substrate. RVP activity is measured in the fluorescence resonance energy transfer assay. […] In the uncleavaed peptide, the EDANS fluorescence was quenched by the proximal DABCYL moiety. When the peptide was cleaved, the quenching was relieved, and activity was measured as an increase in fluorescence signal.
In the above table, all data are for RVP serotype-14 unless otherwise noted in parentheses. All strains of human rhinovirus (HRV) were purchased from American Type Culture Collection (ATCC) except for serotype 14, which was produced from the infectious cDNA clone constructed and supplied to Applicants by Dr. Robert Rueckert at the Institute for Molecular Virology, University of Wisconsin, Madison, Wis. The column designated INHIB represents the percent inhibition at 10 minute preincubation with 50 nM RVP prior to addition of substrate. The data in the column designated kobs/I was measured from progress curves enzyme start experiments.

[3] = target: T1, Recombinant Rhinovirus 3C protease serotype 14 (Human rhinovirus 14, UniProt P03303); assay: biochemical
T1 construct: Recombinant Rhinovirus 3C proteases from serotypes 14, 16, and 2; made in house
T1 sequence (P03303 1538-1719): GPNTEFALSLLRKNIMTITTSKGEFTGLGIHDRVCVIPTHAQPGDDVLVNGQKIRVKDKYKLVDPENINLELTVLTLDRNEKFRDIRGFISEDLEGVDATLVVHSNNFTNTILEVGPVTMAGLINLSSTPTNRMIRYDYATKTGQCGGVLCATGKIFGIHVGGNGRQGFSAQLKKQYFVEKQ

[4] = target: T2, Recombinant Rhinovirus 3C protease serotype 2 (Human rhinovirus 2, UniProt P04936); type: biochemical
T2 construct: Recombinant Rhinovirus 3C proteases from serotypes 14, 16, and 2; made in house
T2 sequence (P04936 1508-1690): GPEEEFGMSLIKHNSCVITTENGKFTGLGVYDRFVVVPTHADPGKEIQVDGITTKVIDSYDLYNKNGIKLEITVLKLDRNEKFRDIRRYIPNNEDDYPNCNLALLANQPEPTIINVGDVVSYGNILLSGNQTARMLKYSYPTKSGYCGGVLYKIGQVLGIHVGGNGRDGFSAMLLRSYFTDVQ

[5] = test system: HRV serotype-14; assay: Antirhinoviral HI-HeLa cell culture assay (XTT cell protection), HRV-14; type: cell-based, human rhinovirus; settings: HRV serotype-14, HI-HeLa cells, m.o.i. 0.13, two days, XTT; read-out: EC50
Procedure: as §1, §2
All strains of human rhinovirus (HRV) for use in this assay were purchased from American Type Culture Collection (ATCC) except for HRV serotype-14, which was produced from the infectious cDNA clone constructed and supplied to Applicants by Dr. Robert Rueckert at the Institute for Molecular Virology, University of Wisconsin, Madison, Wis. HRV stocks were propagated, and viral assays were performed in HI-HeLa cells (ATCC). Cells were grown in Minimal Essential Medium, available from Life Technologies, with 10% fetal bovine serum.
The compounds were tested against control compounds WIN 51711, WIN 52084, and WIN 54954, all obtained from Sterling-Winthrop Pharmaceuticals, and control compound Pirodavir, obtained from Janssen Pharmaceuticals. Antiviral data obtained for the test compounds are shown in Table 2 where all data are for HRV serotype-14 unless otherwise noted in parentheses.

Structure (SMILES)	CC50 ([1]; line for HRV serotype-14)	kobs/I [2]	kobs/I [3]	CC50 ([1]; line for HRV serotype 2)	kobs/I [4]	also measured
CCOC(=O)/C=C/C(CCC(N)=O)NC(=O)C(CC(=O)C(CC(C)C)NC(=O)OCc1ccccc1)Cc1ccccc1 [Compound 1, Ethyl-3-(CBZ-L-LeuΨ[COCH2]-L-Phe-L-Gln)-E-Propenoate]	> 320 µM					
CCOC(=O)/C=C/[C@H](CCC(N)=O)NC(=O)[C@@H](CC(=O)[C@H](CC(C)C)NC(=O)SCC)Cc1ccccc1 [Compound 2, Ethyl-3-(EtSCO-L-LeuΨ[COCH2]-L-Phe-L-Gln)-E-Propenoate]		10,410 M^−1sec^−1	47,000 M^−1sec^−1	> 320 µM	4,600 M^−1sec^−1	
CCOC(=O)/C=C/[C@H](CCC(N)=O)NC(=O)[C@@H](CC(=O)[C@@H](NC(=O)SCC)C(C)C)Cc1ccccc1 [Compound 4, Ethyl-3-(EtSCO-L-ValΨ[COCH2]-L-Phe-L-Gln)-E-Propenoate]	> 320 µM	34,600 M^−1sec^−1	180,000 M^−1sec^−1		17,800 M^−1sec^−1	
CCOC(=O)/C=C/C(CCC(N)=O)NC(=O)C(CC(=O)C(NC(=O)SCc1ccccc1)C(C)C)Cc1ccccc1 [Compound 5, Ethyl-3-(BnSCO-L-ValΨ[COCH2]-L-Phe-L-Gln)-E-Propenoate]		89,700 M^−1sec^−1	500,000 M^−1sec^−1		26,900 M^−1sec^−1	
CCOC(=O)/C=C/C(CCC(N)=O)NC(=O)C(CC(=O)C(CC(C)C)NC(=O)SCc1ccccc1)Cc1ccccc1 [Compound 6, Ethyl-3-(BnSCO-L-LeuΨ[COCH2]-L-Phe-L-Gln)-E-Propenoate]		23,230 M^−1sec^−1	87,600 M^−1sec^−1		13,350 M^−1sec^−1	
CCOC(=O)/C=C/[C@H](CCC(N)=O)NC(=O)[C@@H](CC(=O)[C@H](CC(C)C)NC(=O)SC1CCCC1)Cc1ccccc1 [Compound 8, Ethyl-3-(CyPentylSCO-L-LeuΨ[COCH2]-L-Phe-L-Gln)-E-Propenoate]		14,200 M^−1sec^−1	55,700 M^−1sec^−1		7,000 M^−1sec^−1	kobs/I ([4]; RVP serotype 2, progress curves, enzyme start experiments): 7,000 M^−1sec^−1
CCOC(=O)/C=C/[C@H](CCC(N)=O)NC(=O)[C@@H](CC(=O)[C@@H](NC(=O)SCC)C(C)C)Cc1ccc(C)cc1 [Compound 10, Ethyl-3-(EtSCO-L-ValΨ[COCH2]-L-(p-CH3)Phe-L-Gln)-E-Propenoate]			440,000 M^−1sec^−1	> 1 µM		
CCOC(=O)/C=C/C(CCC(N)=O)NC(=O)C(CC(=O)C(NC(=O)SC1CCCC1)C(C)C)Cc1ccc(C)cc1 [Compound 11, Ethyl-3-(CyPentylSCO-L-ValΨ[COCH2]-L-(p-CH3)Phe-L-Gln)-E-Propenoate]			850,000 M^−1sec^−1	> 3 µM		CC50 ([1]; line for HRV serotype 1A): > 3 µM; CC50 ([1]; line for HRV serotype 10): > 3 µM; CC50 ([1]; line for HRV serotype 16): > 3 µM; CC50 ([1]; line for HRV serotype 39): > 3 µM
CCOC(=O)/C=C/C(CCC(N)=O)NC(=O)C(CC(=O)C(Cc1ccccc1)NC(=O)SC1CCCC1)Cc1ccc(C)cc1 [Compound 12, Ethyl-3-(CyPentylSCO-L-PheΨ[COCH2]-L-(p-CH3)Phe-L-Gln)-E-Propenoate]	> 1 µM					kobs/I ([3]; RVP serotype-14, progress curves, enzyme start experiments): 404,000 M^−1sec^−1; EC50 [5]: 0.14 µM
CCOC(=O)/C=C/[C@H](CCC(N)=O)NC(=O)[C@@H](CC(=O)[C@@H](NC(=O)SCC)C(C)C)Cc1ccc(F)cc1 [Compound 13, Ethyl-3-(EtSCO-L-ValΨ[COCH2]-L-(p-F)Phe-L-Gln)-E-Propenoate]	> 3 µM					
